Data published in PubChem BioAssay (NCI).
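Results reflect a 48-hour exposure of cells in 96-well plates to compound at five concentrations. TGI: total growth inhibition.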

What was measured:
Assay in all cases: growth of human tumour cells (NCI), 48 h
786-0 renal = test system: 786-0 renal
A498 renal = test system: A498 renal
A549 NSCLC = test system: A549 NSCLC
ACHN renal = test system: ACHN renal
CAKI-1 renal = test system: CAKI-1 renal
CCRF-CEM leukemia = test system: CCRF-CEM leukemia
COLO 205 colon = test system: COLO 205 colon
DLD-1 colon = test system: DLD-1 colon
DMS 114 small cell lung = test system: DMS 114 small cell lung
DMS 273 small cell lung = test system: DMS 273 small cell lung
EKVX NSCLC = test system: EKVX NSCLC
HCC-2998 colon = test system: HCC-2998 colon
HCT-116 colon = test system: HCT-116 colon
HCT-15 colon = test system: HCT-15 colon
HOP-18 NSCLC = test system: HOP-18 NSCLC
HOP-62 NSCLC = test system: HOP-62 NSCLC
HOP-92 NSCLC = test system: HOP-92 NSCLC
HT29 colon = test system: HT29 colon
IGROV1 ovarian = test system: IGROV1 ovarian
K-562 leukemia = test system: K-562 leukemia
KM12 colon = test system: KM12 colon
KM20L2 colon = test system: KM20L2 colon
LOX IMVI melanoma = test system: LOX IMVI melanoma
LXFL 529 NSCLC = test system: LXFL 529 NSCLC
M14 melanoma = test system: M14 melanoma
M19-MEL melanoma = test system: M19-MEL melanoma
MALME-3M melanoma = test system: MALME-3M melanoma
MOLT-4 leukemia = test system: MOLT-4 leukemia
NCI-H226 lung = test system: NCI-H226 lung
NCI-H23 lung = test system: NCI-H23 lung
NCI-H460 lung = test system: NCI-H460 lung
NCI-H522 lung = test system: NCI-H522 lung
OVCAR-3 ovarian = test system: OVCAR-3 ovarian
OVCAR-4 ovarian = test system: OVCAR-4 ovarian
OVCAR-5 ovarian = test system: OVCAR-5 ovarian
OVCAR-8 ovarian = test system: OVCAR-8 ovarian
RPMI-8226 leukemia = test system: RPMI-8226 leukemia
RXF 393 renal = test system: RXF 393 renal
RXF-631 renal = test system: RXF-631 renal
SF-268 CNS = test system: SF-268 CNS
SF-295 CNS = test system: SF-295 CNS
SF-539 CNS = test system: SF-539 CNS
SK-MEL-2 melanoma = test system: SK-MEL-2 melanoma
SK-MEL-28 melanoma = test system: SK-MEL-28 melanoma
SK-MEL-5 melanoma = test system: SK-MEL-5 melanoma
SK-OV-3 ovarian = test system: SK-OV-3 ovarian
SN12C renal = test system: SN12C renal
SNB-19 CNS = test system: SNB-19 CNS
SNB-75 CNS = test system: SNB-75 CNS
SNB-78 CNS = test system: SNB-78 CNS
SR leukemia = test system: SR leukemia
SW-620 colon = test system: SW-620 colon
TK-10 renal = test system: TK-10 renal
U251 CNS = test system: U251 CNS
UACC-257 melanoma = test system: UACC-257 melanoma
UACC-62 melanoma = test system: UACC-62 melanoma
UO-31 renal = test system: UO-31 renal
HL-60(TB) leukemia = test system: HL-60(TB) leukemia
XF 498 CNS = test system: XF 498 CNS
BT-549 breast = test system: BT-549 breast
DU-145 prostate = test system: DU-145 prostate
HS 578T breast = test system: HS 578T breast
MCF7 breast = test system: MCF7 breast
MDA-MB-231 breast = test system: MDA-MB-231 breast
MDA-N = test system: MDA-N
PC-3 prostate = test system: PC-3 prostate
T-47D breast = test system: T-47D breast

Structure (SMILES): CCOC(=O)CCC(NC(=O)c1ccc(NC(OC)c2nc3cc(C(F)(F)F)ccc3nc2-c2ccccc2)cc1)C(=O)OCC (configuration not stated)
- TGI (786-0 renal): 26.6 µM
- TGI (A498 renal): 34.5 µM
- TGI (A549 NSCLC): 39.4 µM
- TGI (ACHN renal): 30.2 µM
- TGI (CAKI-1 renal): 31.1 µM
- TGI (CCRF-CEM leukemia): > 21.7 µM
- TGI (COLO 205 colon): 35.6 µM
- TGI (DLD-1 colon): 24.1 µM
- TGI (DMS 114 small cell lung): 30.7 µM
- TGI (DMS 273 small cell lung): 21 µM
- TGI (EKVX NSCLC): 33.6 µM
- TGI (HCC-2998 colon): 30 µM
- TGI (HCT-116 colon): 9.35 µM
- TGI (HCT-15 colon): 34 µM
- TGI (HOP-18 NSCLC): 44.5 µM
- TGI (HOP-62 NSCLC): 31.2 µM
- TGI (HOP-92 NSCLC): 30.3 µM
- TGI (HT29 colon): 22.1 µM
- TGI (IGROV1 ovarian): 33.3 µM
- TGI (K-562 leukemia): > 26.6 µM
- TGI (KM12 colon): 19.1 µM
- TGI (KM20L2 colon): 27.2 µM
- TGI (LOX IMVI melanoma): 23.4 µM
- TGI (LXFL 529 NSCLC): 20.3 µM
- TGI (M14 melanoma): 29 µM
- TGI (M19-MEL melanoma): 29.2 µM
- TGI (MALME-3M melanoma): 31.3 µM
- TGI (MOLT-4 leukemia): > 24.1 µM
- TGI (NCI-H226 lung): 35 µM
- TGI (NCI-H23 lung): 31.5 µM
- TGI (NCI-H460 lung): 26.2 µM
- TGI (NCI-H522 lung): 25.6 µM
- TGI (OVCAR-3 ovarian): 35.8 µM
- TGI (OVCAR-4 ovarian): 55.1 µM
- TGI (OVCAR-5 ovarian): 31.5 µM
- TGI (OVCAR-8 ovarian): 29.6 µM
- TGI (RPMI-8226 leukemia): > 74.1 µM
- TGI (RXF 393 renal): 27.2 µM
- TGI (RXF-631 renal): 29.2 µM
- TGI (SF-268 CNS): 30.9 µM
- TGI (SF-295 CNS): 31.2 µM
- TGI (SF-539 CNS): 26.1 µM
- TGI (SK-MEL-2 melanoma): 33.1 µM
- TGI (SK-MEL-28 melanoma): 31.6 µM
- TGI (SK-MEL-5 melanoma): 30 µM
- TGI (SK-OV-3 ovarian): 34.9 µM
- TGI (SN12C renal): 28.2 µM
- TGI (SNB-19 CNS): 27.5 µM
- TGI (SNB-75 CNS): 36.5 µM
- TGI (SNB-78 CNS): 37.3 µM
- TGI (SR leukemia): > 100 µM
- TGI (SW-620 colon): 20.7 µM
- TGI (TK-10 renal): 38.4 µM
- TGI (U251 CNS): 29.8 µM
- TGI (UACC-257 melanoma): 32.2 µM
- TGI (UACC-62 melanoma): 34.2 µM
- TGI (UO-31 renal): 26.8 µM

Structure (SMILES): Cc1cc(C)nc(NS(=O)(=O)c2ccc(Nc3c4ccccc4nc4c(C(=O)NCCN(C)C)cccc34)cc2)n1
- TGI (786-0 renal): 25.2 µM
- TGI (A549 NSCLC): 16.1 µM
- TGI (ACHN renal): 15.9 µM
- TGI (CCRF-CEM leukemia): 22.6 µM
- TGI (DLD-1 colon): 21.7 µM
- TGI (DMS 114 small cell lung): 17.5 µM
- TGI (DMS 273 small cell lung): 11.2 µM
- TGI (EKVX NSCLC): 23.6 µM
- TGI (HCT-116 colon): 15.5 µM
- TGI (HCT-15 colon): 19.3 µM
- TGI (HL-60(TB) leukemia): 4.82 µM
- TGI (HOP-62 NSCLC): 14.5 µM
- TGI (HT29 colon): 14.3 µM
- TGI (IGROV1 ovarian): 16.4 µM
- TGI (K-562 leukemia): 17.8 µM
- TGI (KM12 colon): 18.4 µM
- TGI (KM20L2 colon): 20.2 µM
- TGI (LOX IMVI melanoma): 11.7 µM
- TGI (LXFL 529 NSCLC): 20 µM
- TGI (M14 melanoma): 20.4 µM
- TGI (M19-MEL melanoma): 14.9 µM
- TGI (MOLT-4 leukemia): 1.61 µM
- TGI (NCI-H226 lung): 6.21 µM
- TGI (NCI-H23 lung): 21.5 µM
- TGI (NCI-H460 lung): 10.9 µM
- TGI (NCI-H522 lung): 4.28 µM
- TGI (OVCAR-4 ovarian): 11.9 µM
- TGI (OVCAR-5 ovarian): 29.4 µM
- TGI (OVCAR-8 ovarian): 20.5 µM
- TGI (RXF 393 renal): 20.2 µM
- TGI (RXF-631 renal): 18 µM
- TGI (SF-268 CNS): 20.1 µM
- TGI (SF-295 CNS): 14.9 µM
- TGI (SF-539 CNS): 14.9 µM
- TGI (SK-MEL-2 melanoma): 19.1 µM
- TGI (SK-MEL-28 melanoma): 20.4 µM
- TGI (SK-MEL-5 melanoma): 18.8 µM
- TGI (SN12C renal): 17.3 µM
- TGI (SNB-19 CNS): 10.7 µM
- TGI (SNB-75 CNS): 24.4 µM
- TGI (SNB-78 CNS): 45.2 µM
- TGI (SR leukemia): 43.7 µM
- TGI (SW-620 colon): 15.2 µM
- TGI (TK-10 renal): 27.7 µM
- TGI (U251 CNS): 18.1 µM
- TGI (UACC-62 melanoma): 14.6 µM
- TGI (UO-31 renal): 5.89 µM
- TGI (XF 498 CNS): 26.8 µM

Structure (SMILES): Cc1ccc(OC(=O)N2C/C(=C\c3ccccc3)C(=O)/C(=C/c3ccccc3)C2)cc1
- TGI (786-0 renal): 35.9 µM
- TGI (A498 renal): > 100 µM
- TGI (A549 NSCLC): > 100 µM
- TGI (ACHN renal): 80.9 µM
- TGI (BT-549 breast): 88 µM
- TGI (CAKI-1 renal): > 100 µM
- TGI (CCRF-CEM leukemia): 16.3 µM
- TGI (COLO 205 colon): > 100 µM
- TGI (DLD-1 colon): 28.1 µM
- TGI (DMS 114 small cell lung): 59.4 µM
- TGI (DMS 273 small cell lung): 18.1 µM
- TGI (DU-145 prostate): > 100 µM
- TGI (EKVX NSCLC): > 100 µM
- TGI (HCC-2998 colon): > 37 µM
- TGI (HCT-116 colon): 5.28 µM
- TGI (HCT-15 colon): > 100 µM
- TGI (HL-60(TB) leukemia): 15.6 µM
- TGI (HOP-18 NSCLC): > 91.2 µM
- TGI (HOP-62 NSCLC): 38.7 µM
- TGI (HOP-92 NSCLC): > 100 µM
- TGI (HS 578T breast): 76.5 µM
- TGI (HT29 colon): 35.6 µM
- TGI (IGROV1 ovarian): > 95.5 µM
- TGI (K-562 leukemia): > 51.7 µM
- TGI (KM12 colon): 45.7 µM
- TGI (KM20L2 colon): > 100 µM
- TGI (LOX IMVI melanoma): 9.71 µM
- TGI (LXFL 529 NSCLC): 30.6 µM
- TGI (M14 melanoma): 21.6 µM
- TGI (M19-MEL melanoma): 18.9 µM
- TGI (MALME-3M melanoma): > 100 µM
- TGI (MCF7 breast): 56 µM
- TGI (MDA-MB-231 breast): 70.2 µM
- TGI (MDA-N): 15.3 µM
- TGI (MOLT-4 leukemia): 18.5 µM
- TGI (NCI-H226 lung): > 100 µM
- TGI (NCI-H23 lung): 87.9 µM
- TGI (NCI-H460 lung): > 100 µM
- TGI (NCI-H522 lung): 33.8 µM
- TGI (OVCAR-3 ovarian): 37.4 µM
- TGI (OVCAR-4 ovarian): 32.2 µM
- TGI (OVCAR-5 ovarian): > 100 µM
- TGI (OVCAR-8 ovarian): 54.5 µM
- TGI (PC-3 prostate): > 100 µM
- TGI (RPMI-8226 leukemia): 1.9 µM
- TGI (RXF 393 renal): 37.5 µM
- TGI (RXF-631 renal): > 100 µM
- TGI (SF-268 CNS): 98.5 µM
- TGI (SF-295 CNS): 47.6 µM
- TGI (SF-539 CNS): 66.2 µM
- TGI (SK-MEL-2 melanoma): > 100 µM
- TGI (SK-MEL-28 melanoma): > 75 µM
- TGI (SK-MEL-5 melanoma): > 57.3 µM
- TGI (SK-OV-3 ovarian): 86.2 µM
- TGI (SN12C renal): 58.3 µM
- TGI (SNB-19 CNS): > 100 µM
- TGI (SNB-75 CNS): 55.4 µM
- TGI (SNB-78 CNS): 82.3 µM
- TGI (SR leukemia): 13.2 µM
- TGI (SW-620 colon): 35.6 µM
- TGI (T-47D breast): > 100 µM
- TGI (TK-10 renal): > 87.9 µM
- TGI (U251 CNS): 38.6 µM
- TGI (UACC-257 melanoma): 69.5 µM
- TGI (UACC-62 melanoma): 59 µM
- TGI (UO-31 renal): 85 µM
- TGI (XF 498 CNS): 49.1 µM
